Test results published in the supplement of paper PMC10883282.

Legend:
Test in all cases: relative viability vs DMSO control (72 h) (fraction); higher = more viable cells
SK-ES-1 = test system: SK-ES-1
Method in brief: (§1)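 Sarcoma cell lines went into 384-well plates at densities chosen to reach 80–90% confluence. After 24 h, each well received 2.5 µl of serially diluted compound, with source plates running from 10 mM to 0.0002 mM, and the plates were kept 72 h at 37 °C, 5% CO2, alongside 0.1% DMSO vehicle and a 5 µM positive control. Relative viability was derived from ATPLite readings as percent growth and averaged over up to triplicate wells. The data were then rescaled so that 1 stands for full and 0 for none.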

G401 = test system: G401
Method in brief: as §1

VA-ES-BJ = test system: VA-ES-BJ
Method in brief: as §1

HT1080 = test system: HT1080
Method in brief: as §1

SK-LMS-1 = test system: SK-LMS-1
Method in brief: as §1

RD-ES = test system: RD-ES
Method in brief: as §1

SW982 = test system: SW982
Method in brief: as §1

KHOS-NP = test system: KHOS-NP
Method in brief: as §1

A204 = test system: A204
Method in brief: as §1

HS729 = test system: HS729
Method in brief: as §1

SW684 = test system: SW684
Method in brief: as §1

SW872 = test system: SW872
Method in brief: as §1

COC(=O)c1ccc2c(c1)NC(=O)/C2=C(\Nc1ccc(N(C)C(=O)CN2CCN(C)CC2)cc1)c1ccccc1 [Nintedanib]
Details	relative viability
A204, 0.00017 µM	1.04
A204, 0.00051 µM	1.04
A204, 0.00152 µM	1.02
A204, 0.00457 µM	0.997
A204, 0.01372 µM	0.831
A204, 0.04115 µM	0.566
A204, 0.1235 µM	0.434
A204, 0.3704 µM	0.392
A204, 1.111 µM	0.376
A204, 3.333 µM	0.318
A204, 10 µM	0.22
G401, 0.00017 µM	1
G401, 0.00051 µM	0.99
G401, 0.00152 µM	0.992
G401, 0.00457 µM	1.03
G401, 0.01372 µM	0.98
G401, 0.04115 µM	0.987
G401, 0.1235 µM	0.977
G401, 0.3704 µM	0.891
G401, 1.111 µM	0.721
G401, 3.333 µM	0.485
G401, 10 µM	0.0535
HS729, 0.00017 µM	0.981
HS729, 0.00051 µM	1
HS729, 0.00152 µM	1.01
HS729, 0.00457 µM	0.99
HS729, 0.01372 µM	1.04
HS729, 0.04115 µM	0.973
HS729, 0.1235 µM	0.929
HS729, 0.3704 µM	0.863
HS729, 1.111 µM	0.738
HS729, 3.333 µM	0.626
HS729, 10 µM	0.119
HT1080, 0.00017 µM	1.05
HT1080, 0.00051 µM	1.08
HT1080, 0.00152 µM	1.06
HT1080, 0.00457 µM	1.06
HT1080, 0.01372 µM	1.069
HT1080, 0.04115 µM	1.07
HT1080, 0.1235 µM	1.06
HT1080, 0.3704 µM	1.06
HT1080, 1.111 µM	1.07
HT1080, 3.333 µM	1.01
HT1080, 10 µM	0.084
KHOS-NP, 0.00017 µM	1.06
KHOS-NP, 0.00051 µM	1.06
KHOS-NP, 0.00152 µM	1.06
KHOS-NP, 0.00457 µM	1.06
KHOS-NP, 0.01372 µM	1.06
KHOS-NP, 0.04115 µM	1.06
KHOS-NP, 0.1235 µM	1.05
KHOS-NP, 0.3704 µM	1.04
KHOS-NP, 1.111 µM	1.037
KHOS-NP, 3.333 µM	0.982
KHOS-NP, 10 µM	0.146
RD-ES, 0.00017 µM	0.955
RD-ES, 0.00051 µM	0.96
RD-ES, 0.00152 µM	0.944
RD-ES, 0.00457 µM	0.958
RD-ES, 0.01372 µM	0.945
RD-ES, 0.04115 µM	0.927
RD-ES, 0.1235 µM	0.806
RD-ES, 0.3704 µM	0.73
RD-ES, 1.111 µM	0.706
RD-ES, 3.333 µM	0.667
RD-ES, 10 µM	0.203
SK-ES-1, 0.00017 µM	1
SK-ES-1, 0.00051 µM	0.951
SK-ES-1, 0.00152 µM	0.945
SK-ES-1, 0.00457 µM	0.961
SK-ES-1, 0.01372 µM	1.03
SK-ES-1, 0.04115 µM	1.03
SK-ES-1, 0.1235 µM	0.986
SK-ES-1, 0.3704 µM	0.883
SK-ES-1, 1.111 µM	0.571
SK-ES-1, 3.333 µM	0.399
SK-ES-1, 10 µM	0.0168
SK-LMS-1, 0.00017 µM	1.16
SK-LMS-1, 0.00051 µM	1.13
SK-LMS-1, 0.00152 µM	1.13
SK-LMS-1, 0.00457 µM	1.09
SK-LMS-1, 0.01372 µM	1.11
SK-LMS-1, 0.04115 µM	1.08
SK-LMS-1, 0.1235 µM	1.073
SK-LMS-1, 0.3704 µM	1.07
SK-LMS-1, 1.111 µM	1.03
SK-LMS-1, 3.333 µM	0.932
SK-LMS-1, 10 µM	0.145
SW684, 0.00017 µM	1.09
SW684, 0.00051 µM	1.11
SW684, 0.00152 µM	1.15
SW684, 0.00457 µM	1.12
SW684, 0.01372 µM	1.13
SW684, 0.04115 µM	1.17
SW684, 0.1235 µM	1.13
SW684, 0.3704 µM	1.11
SW684, 1.111 µM	1
SW684, 3.333 µM	0.96
SW684, 10 µM	0.422
SW872, 0.00017 µM	1.05
SW872, 0.00051 µM	1.03
SW872, 0.00152 µM	1.02
SW872, 0.00457 µM	1.03
SW872, 0.01372 µM	1.03
SW872, 0.04115 µM	1.03
SW872, 0.1235 µM	1.03
SW872, 0.3704 µM	1.04
SW872, 1.111 µM	0.989
SW872, 3.333 µM	0.963
SW872, 10 µM	0.809
SW982, 0.00017 µM	0.999
SW982, 0.00051 µM	0.996
SW982, 0.00152 µM	1
SW982, 0.00457 µM	0.994
SW982, 0.01372 µM	0.975
SW982, 0.04115 µM	0.965
SW982, 0.1235 µM	1
SW982, 0.3704 µM	0.961
SW982, 1.111 µM	0.87
SW982, 3.333 µM	0.823
SW982, 10 µM	0.0461
VA-ES-BJ, 0.00017 µM	1.04
VA-ES-BJ, 0.00051 µM	1.06
VA-ES-BJ, 0.00152 µM	1.04
VA-ES-BJ, 0.00457 µM	1.06
VA-ES-BJ, 0.01372 µM	1.05
VA-ES-BJ, 0.04115 µM	1.045
VA-ES-BJ, 0.1235 µM	1.05
VA-ES-BJ, 0.3704 µM	1.03
VA-ES-BJ, 1.111 µM	0.993
VA-ES-BJ, 3.333 µM	0.994
VA-ES-BJ, 10 µM	0.803

O=C(/C=C\n1cnc(-c2cc(C(F)(F)F)cc(C(F)(F)F)c2)n1)NNc1cnccn1 [Selinexor]
Details	relative viability
A204, 0.00017 µM	1.1
A204, 0.00051 µM	1.11
A204, 0.00152 µM	1.08
A204, 0.00457 µM	1.08
A204, 0.01372 µM	0.996
A204, 0.04115 µM	0.884
A204, 0.1235 µM	0.677
A204, 0.3704 µM	0.441
A204, 1.111 µM	0.299
A204, 3.333 µM	0.218
A204, 10 µM	0.171
G401, 0.00017 µM	1.07
G401, 0.00051 µM	1.05
G401, 0.00152 µM	1.04
G401, 0.00457 µM	0.985
G401, 0.01372 µM	0.943
G401, 0.04115 µM	0.8726
G401, 0.1235 µM	0.743
G401, 0.3704 µM	0.463
G401, 1.111 µM	0.366
G401, 3.333 µM	0.272
G401, 10 µM	0.235
HS729, 0.00017 µM	1.07
HS729, 0.00051 µM	1.06
HS729, 0.00152 µM	1.05
HS729, 0.00457 µM	0.98
HS729, 0.01372 µM	0.929
HS729, 0.04115 µM	0.835
HS729, 0.1235 µM	0.7742
HS729, 0.3704 µM	0.741
HS729, 1.111 µM	0.676
HS729, 3.333 µM	0.602
HS729, 10 µM	0.499
HT1080, 0.00017 µM	1.11
HT1080, 0.00051 µM	1.14
HT1080, 0.00152 µM	1.13
HT1080, 0.00457 µM	1.11
HT1080, 0.01372 µM	1.082
HT1080, 0.04115 µM	1.088
HT1080, 0.1235 µM	0.814
HT1080, 0.3704 µM	0.375
HT1080, 1.111 µM	0.3301
HT1080, 3.333 µM	0.2689
HT1080, 10 µM	0.2291
KHOS-NP, 0.00017 µM	1.09
KHOS-NP, 0.00051 µM	1.12
KHOS-NP, 0.00152 µM	1.131
KHOS-NP, 0.00457 µM	1.13
KHOS-NP, 0.01372 µM	1.12
KHOS-NP, 0.04115 µM	1.05
KHOS-NP, 0.1235 µM	0.727
KHOS-NP, 0.3704 µM	0.238
KHOS-NP, 1.111 µM	0.184
KHOS-NP, 3.333 µM	0.0993
KHOS-NP, 10 µM	0.0794
RD-ES, 0.00017 µM	0.988
RD-ES, 0.00051 µM	1.02
RD-ES, 0.00152 µM	0.993
RD-ES, 0.00457 µM	0.972
RD-ES, 0.01372 µM	0.949
RD-ES, 0.04115 µM	0.825
RD-ES, 0.1235 µM	0.705
RD-ES, 0.3704 µM	0.602
RD-ES, 1.111 µM	0.5
RD-ES, 3.333 µM	0.3989
RD-ES, 10 µM	0.334
SK-ES-1, 0.00017 µM	1.05
SK-ES-1, 0.00051 µM	1.06
SK-ES-1, 0.00152 µM	1.04
SK-ES-1, 0.00457 µM	1.05
SK-ES-1, 0.01372 µM	0.953
SK-ES-1, 0.04115 µM	0.515
SK-ES-1, 0.1235 µM	0.0598
SK-ES-1, 0.3704 µM	0.014
SK-ES-1, 1.111 µM	0.0115
SK-ES-1, 3.333 µM	0.0084
SK-ES-1, 10 µM	0.013
SK-LMS-1, 0.00017 µM	1.03
SK-LMS-1, 0.00051 µM	1.03
SK-LMS-1, 0.00152 µM	0.98
SK-LMS-1, 0.00457 µM	0.95
SK-LMS-1, 0.01372 µM	0.856
SK-LMS-1, 0.04115 µM	0.736
SK-LMS-1, 0.1235 µM	0.512
SK-LMS-1, 0.3704 µM	0.319
SK-LMS-1, 1.111 µM	0.241
SK-LMS-1, 3.333 µM	0.246
SK-LMS-1, 10 µM	0.234
SW684, 0.00017 µM	1.14
SW684, 0.00051 µM	1.24
SW684, 0.00152 µM	1.23
SW684, 0.00457 µM	1.25
SW684, 0.01372 µM	1.18
SW684, 0.04115 µM	1.17
SW684, 0.1235 µM	0.953
SW684, 0.3704 µM	0.885
SW684, 1.111 µM	0.819
SW684, 3.333 µM	0.754
SW684, 10 µM	0.686
SW872, 0.00017 µM	1.065
SW872, 0.00051 µM	1.07
SW872, 0.00152 µM	1.075
SW872, 0.00457 µM	1.07
SW872, 0.01372 µM	1.06
SW872, 0.04115 µM	0.989
SW872, 0.1235 µM	0.823
SW872, 0.3704 µM	0.752
SW872, 1.111 µM	0.537
SW872, 3.333 µM	0.365
SW872, 10 µM	0.306
SW982, 0.00017 µM	1.06
SW982, 0.00051 µM	1.07
SW982, 0.00152 µM	1.08
SW982, 0.00457 µM	1.07
SW982, 0.01372 µM	1.08
SW982, 0.04115 µM	0.918
SW982, 0.1235 µM	0.53
SW982, 0.3704 µM	0.292
SW982, 1.111 µM	0.211
SW982, 3.333 µM	0.161
SW982, 10 µM	0.177
VA-ES-BJ, 0.00017 µM	1.1
VA-ES-BJ, 0.00051 µM	1.09
VA-ES-BJ, 0.00152 µM	1.08
VA-ES-BJ, 0.00457 µM	1.03
VA-ES-BJ, 0.01372 µM	0.953
VA-ES-BJ, 0.04115 µM	0.78
VA-ES-BJ, 0.1235 µM	0.565
VA-ES-BJ, 0.3704 µM	0.318
VA-ES-BJ, 1.111 µM	0.198
VA-ES-BJ, 3.333 µM	0.187
VA-ES-BJ, 10 µM	0.165
